Results reported in patent publication US11672814B2, “NGNA compositions and methods of use” (priority 2008, dated 2023).
Where two headings read alike, the source gives them in different places.

Assays:
[1] = tested on: HRV-16; test: Virucidal assay, Rhinovirus titrated on Wi-38 cells (CPE readout); format: cell-based, Human Rhinovirus; conditions: 10 minutes
[2] = tested on: Feline Calicivirus (FCV); test: Virucidal assay, Norovirus surrogate virus titrated on CRFK cells (CPE readout); format: cell-based; conditions: 10 minutes
[3] = tested on: HSV-1, SC-16; test: Virucidal assay, HSV-1 titrated on Vero cells (CPE readout); format: cell-based, Herpes Simplex Virus type 1; conditions: 10 minutes; for Sample titer: control virus titer 6.25
[4] = tested on: Influenza B virus B/Malaysia/2506/2004; format: cell-based; conditions: 10 minutes, MDCK

SMILES: O=C(CO)N[C@H]1[C@H]([C@H](O)[C@H](O)CO)O[C@](O)(C(=O)O)C[C@@H]1O [NGNA, n-glycolylneuraminic acid]
- Virus reduction ([1]; NGNA 10 nM): 90.00%
- Sample titer ([1]; NGNA 10 nM, control virus titer 4.50): 3.50 log10 TCID50/ml
- Virus reduction ([1]; NGNA 10 μM): 90.00%
- Sample titer ([1]; NGNA 10 μM, control virus titer 4.50): 3.50 log10 TCID50/ml
- Virus reduction ([1]; NGNA 10 mM): 99.44%
- Sample titer ([1]; NGNA 10 mM, control virus titer 4.75): 2.50 log10 TCID50/ml
- Virus reduction ([2]; NGNA 10 nM): 0.00%
- Sample titer ([2]; NGNA 10 nM, control virus titer 5.50): 5.50 log10 TCID50/ml
- Virus reduction ([2]; NGNA 10 μM): 0.00%
- Sample titer ([2]; NGNA 10 μM, control virus titer 5.50): 5.50 log10 TCID50/ml
- Virus reduction ([2]; NGNA 10 mM): 82.21%
- Sample titer ([2]; NGNA 10 mM, control virus titer 5.25): 4.50 log10 TCID50/ml
- Virus reduction ([3]; NGNA 10 nM): 0.00%
- Sample titer ([3]; NGNA 10 nM): 7.00 log10 TCID50/ml
- Virus reduction ([3]; NGNA 10 μM): 0.00%
- Sample titer ([3]; NGNA 10 μM): 6.25 log10 TCID50/ml
- Virus reduction ([3]; NGNA 10 mM): 99.98%
- Sample titer ([3]; NGNA 10 mM): 2.50 log10 TCID50/ml
- Virus reduction ([4]; NGNA 10 nM): 0.00%
- Virus reduction ([4]; NGNA 10 μM): 0.00%
- Virus reduction ([4]; NGNA 10 mM): 99.00%
